Assay results as given in US7078550B2, “Silanyl phenols and naphthols” (Ciba Specialty Chemicals Corporation, priority 2001, dated 2006).
Values after ≈ are worked out from the molar mass of the structure shown.

Legend:
Assay in all cases: Minimum Inhibitory Concentration (MIC) in the agar incorporation test
Format in all cases: cell-based
[1] = tested on: Escherichia coli NCTC 8196; conditions: NCTC8196, 24 hours at 37° C.
Experimental: (§1) Determination of the Minimum Inhibitory Concentration (MIC) in the Agar Incorporation Test (MIC Test)
(§2) 0.3 ml of each dilution stage is mixed with 15 ml of still-liquid nutrient medium. After the nutrient medium has solidified, 10 μl of each of the following organism dilutions of the test strains in 0.85% NaCl solution are spotted onto the agar medium:
(§3) The plates are incubated for 24 hours at 37° C. (A. niger 3 days at 28° C.) and then the highest dilution (lowest concentration) of the test substance at which growth is just no longer discernible (corresponds to the MIC) is determined.

[2] = tested on: Staphylococcus aureus ATCC 9144; conditions: ATCC9144, 24 hours at 37° C.
Experimental: as §1, §2, §3

[3] = tested on: Candida albicans ATCC 10231
Experimental: as §1, §2, §3

[4] = tested on: Pseudomonas aeruginosa CIP A-22; conditions: CIPA22, 24 hours at 37° C.
Experimental: as §1, §2, §3

[5] = tested on: Aspergillus niger ATCC 6275; conditions: ATCC6275, 72 h, Sabouraud 4% glucose agar, 3 days at 28° C.
Experimental: as §1, §2, §3

[6] = tested on: Staphylococcus hominis DSM 20328; conditions: DSM20328
Experimental: (§4) Determination of the Minimum Inhibitory Concentration (MIC) in the Agar Incorporation Test (MIC Test) [table] Test Principle: 0.3 ml of each dilution stage is mixed with 15 ml of still-liquid nutrient medium. After the nutrient medium has solidified, 10 μl of each of the following organism dilutions of the test strains in 0.85% NaCl solution are spotted onto the agar medium: The plates are incubated for 24 hours at 37° C. (A. niger 3 days at 28° C.) and then the highest dilution (lowest concentration) of the test substance at which growth is just no longer discernible (corresponds to the MIC) is determined.

[7] = tested on: Enterococcus hirae ATCC 10541; conditions: ATCC10541
Experimental: as §4

[8] = tested on: Corynebacterium xerosis ATCC 373; conditions: ATCC373, 24 h
Experimental: as §4

[9] = tested on: Escherichia coli ATCC 10536; conditions: ATCC10536
Experimental: as §4

[10] = ATCC10231, Candida albicans ATCC 10231, 24 hours at 37° C.
[11] = 24 h, Candida albicans ATCC 1023 (as printed in Table 3e)

| Structure (SMILES) | MIC [1] [µg/mL] | MIC [2] [µg/mL] | MIC [3, 10] [µg/mL] | MIC [4] [µg/mL] | MIC [5] [µg/mL] | MIC [6] [µg/mL] | MIC [7] [µg/mL] | MIC [8] [µg/mL] | MIC [3, 11] [µg/mL] | MIC [9] [µg/mL] |
| --- | --- | --- | --- | --- | --- | --- | --- | --- | --- | --- |
| CC(Cc1cc(Oc2ccccc2)ccc1O)C[Si](C)(O[Si](C)(C)C)O[Si](C)(C)C (stereo not drawn) [(101)] | > 1000 | 1000 (≈ 2160 µM) | > 1000 | > 1000 | > 1000 | – | – | – | – | – |
| COc1cc(CCC[Si](C)(O[Si](C)(C)C)O[Si](C)(C)C)ccc1O [(102)] | > 1000 | > 1000 | > 1000 | > 1000 | > 1000 | – | – | – | – | – |
| CC(Cc1cc(-c2ccccc2)ccc1O)C[Si](C)(O[Si](C)(C)C)O[Si](C)(C)C (stereo not drawn) [(103)] | > 560 | > 560 | > 560 | > 560 | > 560 | > 560 | > 560 | 17.5 (≈ 39.2 µM) | – | – |
| C[Si](C)(C)O[Si](C)(CCCc1ccccc1O)O[Si](C)(C)C [(104)] | > 1000 | 8 (≈ 22.4 µM) | > 1000 | > 1000 | > 1000 | – | – | – | – | – |
| C[Si](C)(C)O[Si](C)(C)O[Si](C)(C)CCCc1ccccc1O [(105)] | > 1000 | 15.6 (≈ 43.7 µM) | > 1000 | > 1000 | > 1000 | > 1000 | 15.6 (≈ 43.7 µM) | 3.9 (≈ 10.9 µM) | – | – |
| C[Si](C)(C)O[Si](C)(C)CCCc1ccccc1O [(106)] | > 1000 | 7.8 (≈ 27.6 µM) | > 1000 | > 1000 | 31.2 (≈ 110 µM) | 31.2 (≈ 110 µM) | 15.6 (≈ 55.2 µM) | 7.8 (≈ 27.6 µM) | – | – |
| C[Si](C)(CCCc1ccccc1O)c1ccccc1 [(107)] | > 1000 | 1.9 (≈ 7.03 µM) | 125 (≈ 462 µM) | > 1000 | 15.6 (≈ 57.7 µM) | 7.8 (≈ 28.8 µM) | 3.9 (≈ 14.4 µM) | 1.9 (≈ 7.03 µM) | – | – |
| CC(Cc1cc(C(C)(C)C)ccc1O)C[Si](C)(O[Si](C)(C)C)O[Si](C)(C)C (stereo not drawn) [(108)] | > 1000 | – | > 1000 | > 1000 | > 1000 | – | – | 8 (≈ 18.7 µM) | – | – |
| COc1ccc(O)c(CCC[Si](C)(O[Si](C)(C)C)O[Si](C)(C)C)c1 [(110)] | > 1000 | 250 (≈ 646 µM) | > 1000 | > 1000 | > 1000 | – | – | 4 (≈ 10.3 µM) | – | – |
| COc1ccc(O)c(CCC[Si](C)(C)c2ccccc2)c1 [(111)] | > 1000 | 125 (≈ 416 µM) | > 1000 | > 1000 | > 1000 | – | – | 8 (≈ 26.6 µM) | – | – |
| C[Si](C)(C)O[Si](C)(C)O[Si](C)(C)CCCc1cc(Cl)ccc1O [(112)] | > 1000 | 7 (≈ 17.9 µM) | > 1000 | > 1000 | > 1000 | – | – | 2 (≈ 5.11 µM) | – | – |
| Cc1ccc(O)c(CCC[Si](C)(C)O[Si](C)(C)C)c1 [(114)] | > 1000 | 8 (≈ 27 µM) | > 1000 | > 1000 | > 1000 | – | – | 8 (≈ 27 µM) | – | – |
| C[Si](C)(C)O[Si](C)(C)CCCc1cc(Cl)ccc1O [(115)] | 250 (≈ 789 µM) | 15 (≈ 47.3 µM) | 500 (≈ 1580 µM) | > 1000 | 500 (≈ 1580 µM) | – | – | 8 (≈ 25.2 µM) | – | – |
| C[Si](C)(C)O[Si](C)(CCCc1ccc2ccccc2c1O)O[Si](C)(C)C [(116)] | – | > 1000 | – | – | > 1000 | > 1000 | – | 500 (≈ 1230 µM) | > 1000 | > 1000 |
| CC(Cc1ccc2ccccc2c1O)C[Si](C)(O[Si](C)(C)C)O[Si](C)(C)C (stereo not drawn) [(117)] | – | > 1000 | – | – | > 1000 | > 1000 | – | 1000 (≈ 2380 µM) | > 1000 | > 1000 |
| CC[Si](CC)(CC)CC(C)Cc1cc(Oc2ccccc2)ccc1O (stereo not drawn) [(118)] | > 1000 | 4 (≈ 11.2 µM) | > 1000 | > 1000 | > 1000 | – | – | – | – | – |
| C[Si](C)(CCCc1cc(Cl)ccc1O)c1ccccc1 [(119)] | > 1000 | 4 (≈ 13.1 µM) | 62 (≈ 203 µM) | > 1000 | 62 (≈ 203 µM) | – | – | 2 (≈ 6.56 µM) | – | – |
| CC(Cc1cc(Oc2ccccc2)ccc1O)C[Si](C)(C)c1ccccc1 (stereo not drawn) [(120)] | > 1000 | 8 (≈ 21.2 µM) | > 1000 | > 1000 | > 1000 | – | – | 4 (≈ 10.6 µM) | – | – |
| CC(Cc1ccc2ccccc2c1O)C[Si](C)(C)c1ccccc1 (stereo not drawn) [(121)] | – | > 1000 | – | – | > 1000 | > 1000 | – | 250 (≈ 747 µM) | > 1000 | > 1000 |
